This note sets out measurements from patent publication US20240050428A1 (Cullgen (Shanghai), Inc., priority 2020, published 2024).

The test system of one assay is MV4;11 cells. Put plainly: Cell viability assay (CellTiter-Glo) in MV4;11 cells, alone or with gilteritinib. In kind it is cell-based. The settings on record: Homo sapiens, MV4-11, 72 h, MV4;11 cells, three days, CellTiter-Glo, read-out: MV4.
For another assay, the system named is MOLM-13 cells. Put plainly: Cell viability assay (CellTiter-Glo) in MOLM-13 cells, alone or with gilteritinib. Format: cell-based. The settings on record: Homo sapiens, MOLM-13, 72 h, MOLM-13 cells, three days, CellTiter-Glo.
Where [1] appears, read: compound alone (without gilteritinib), 11 IC50.
[2] abbreviates: compound with gilteritinib 10 nM, 11 IC50 gilteritinib.
The mark [3] stands for this setting: compound alone (without gilteritinib), read-out: MOLM-13 IC50.
Setting [4] is: compound with gilteritinib 20 nM, read-out: MOLM-13 IC50 gilteritinib.

Read-outs that look alike come from different tables or passages of the source.

As to `O=C1CCC(N2C(=O)c3ccc(NCCCC4CC(n5cc(N6CCOCC6)cn5)C4)cc3C2=O)C(=O)N1` (centres unmarked) [GS-437, 2-(2,6-dioxopiperidin-3-yl)-5-((3-(3-(4-morpholino-1H-pyrazol-1-yl)cyclobutyl)propyl)amino)isoindoline-1,3-dione], the IC50 is above 1000 nM in the assay with MV4;11 cells (setting [1]), above 1000 nM in the assay on MV4;11 cells (setting [2]), above 1000 nM in the assay with MOLM-13 cells (setting [3]) and 100 to 1000 nM in the assay with MOLM-13 cells (setting [4]).

For the molecule `O=C1CCC(N2C(=O)c3ccc(NC[C@H]4C[C@H](n5cc(N6CCOCC6)c(C6CC6)n5)C4)cc3C2=O)C(=O)N1` (stereo partly drawn) [GS-438, 5-(((trans-3-(3-cyclopropyl-4-morpholino-1H-pyrazol-1-yl)cyclobutyl)methyl)amino)-2-(2,6-dioxopiperidin-3-yl)isoindoline-1,3-dione], the IC50 was above 1000 nM with MV4;11 cells (setting [1]), above 1000 nM with MV4;11 cells (setting [2]), above 1000 nM with MOLM-13 cells (setting [3]) and 100 to 1000 nM with MOLM-13 cells (setting [4]).

In the case of `Cc1cccc(-c2cn([C@H]3C[C@H](CNc4ccc5c(c4)C(=O)N(C4CCC(=O)NC4=O)C5=O)C3)nc2C(F)(F)F)n1` (stereo partly drawn) [GS-439, 2-(2,6-dioxopiperidin-3-yl)-5-(((trans-3-(4-(6-methylpyridin-2-yl)-3-(trifluoromethyl)-1H-pyrazol-1-yl)cyclobutyl)methyl)amino)isoindoline-1,3-dione], the IC50 is 100 to 1000 nM in the assay on MV4;11 cells (setting [1]), 10 to 100 nM in the assay on MV4;11 cells (setting [2]), above 1000 nM in the assay on MOLM-13 cells (setting [3]) and 10 to 100 nM with MOLM-13 cells (setting [4]).

Regarding `CN1CCN(c2cccc(-c3cn([C@H]4C[C@H](CNc5ccc6c(c5)C(=O)N(C5CCC(=O)NC5=O)C6=O)C4)nc3C3CC3)n2)CC1` (stereo partly drawn) [GS-440, 5-(((trans-3-(3-cyclopropyl-4-(6-(4-methylpiperazin-1-yl)pyridin-2-yl)-1H-pyrazol-1-yl)cyclobutyl)methyl)amino)-2-(2,6-dioxopiperidin-3-yl)isoindoline-1,3-dione], the IC50 with MV4;11 cells (setting [1]), in the assay on MV4;11 cells (setting [2]), in the assay on MOLM-13 cells (setting [3]) and with MOLM-13 cells (setting [4]) was 100 to 1000 nM each time.

As to `O=C1CCC(N2C(=O)c3ccc(NC[C@H]4C[C@H](n5cc(-c6cccc(NC7CCOCC7)n6)c(C6CC6)n5)C4)cc3C2=O)C(=O)N1` (stereo partly drawn) [GS-441, 5-(((trans-3-(3-cyclopropyl-4-(6-((tetrahydro-2H-pyran-4-yl)amino)pyridin-2-yl)-1H-pyrazol-1-yl)cyclobutyl)methyl)amino)-2-(2,6-dioxopiperidin-3-yl)isoindoline-1,3-dione], the IC50 was above 1000 nM in the assay on MV4;11 cells (setting [1]), 10 to 100 nM in the assay with MV4;11 cells (setting [2]), 10 to 100 nM in the assay with MOLM-13 cells (setting [3]) and 100 to 1000 nM with MOLM-13 cells (setting [4]).

Turning to `O=C1CCC(N2C(=O)c3ccc(NC[C@H]4C[C@H](n5nc(C6CC6)c6ccccc65)C4)cc3C2=O)C(=O)N1` (stereo partly drawn) [GS-442, 5-(((trans-3-(3-cyclopropyl-1H-indazol-1-yl)cyclobutyl)methyl)amino)-2-(2,6-dioxopiperidin-3-yl)isoindoline-1,3-dione], the IC50 is below 10 nM in the assay with MV4;11 cells (setting [1]), below 10 nM in the assay with MV4;11 cells (setting [2]), 10 to 100 nM in the assay on MOLM-13 cells (setting [3]) and below 10 nM in the assay on MOLM-13 cells (setting [4]).

In the case of `O=C1CCC(N2C(=O)c3ccc(NCCC[C@H]4C[C@H](n5cc(-c6ccc(Cl)cn6)cn5)C4)cc3C2=O)C(=O)N1` (stereo partly drawn) [GS-443, 5-((3-(trans-3-(4-(5-chloropyridin-2-yl)-1H-pyrazol-1-yl)cyclobutyl)propyl)amino)-2-(2,6-dioxopiperidin-3-yl)isoindoline-1,3-dione], the IC50 in the assay with MV4;11 cells (setting [1]) was 100 to 1000 nM; with MV4;11 cells (setting [2]), 100 to 1000 nM; in the assay on MOLM-13 cells (setting [3]), below 10 nM; with MOLM-13 cells (setting [4]) it was above 1000 nM.

`Cc1cccc(-c2cn([C@H]3C[C@H](CNc4ccc5c(c4)C(=O)N(C4CCC(=O)NC4=O)C5=O)C3)nc2C(F)F)n1` (stereo partly drawn) [GS-444, 5-(((trans-3-(3-(difluoromethyl)-4-(6-methylpyridin-2-yl)-1H-pyrazol-1-yl)cyclobutyl)methyl)amino)-2-(2,6-dioxopiperidin-3-yl)isoindoline-1,3-dione]: the IC50 with MV4;11 cells (setting [1]) is 10 to 100 nM; in the assay with MV4;11 cells (setting [2]) it was below 10 nM; in the assay on MOLM-13 cells (setting [3]), 10 to 100 nM; in the assay on MOLM-13 cells (setting [4]), below 10 nM.

With `O=C1CCC(N2C(=O)c3ccc(NC[C@H]4C[C@H](n5cc(-c6cccc(N[C@H]7CC[C@@H](O)CC7)n6)c(C6CC6)n5)C4)cc3C2=O)C(=O)N1` (stereo partly drawn) [GS-445, 5-(((trans-3-(3-cyclopropyl-4-(6-((cis-4-hydroxycyclohexyl)amino)pyridin-2-yl)-1H-pyrazol-1-yl)cyclobutyl)methyl)amino)-2-(2,6-dioxopiperidin-3-yl)isoindoline-1,3-dione], the IC50 in the assay on MV4;11 cells (setting [1]), in the assay with MV4;11 cells (setting [2]), in the assay with MOLM-13 cells (setting [3]) and in the assay on MOLM-13 cells (setting [4]) was 100 to 1000 nM each time.

As for `Cc1ccc(-c2cnn([C@H]3C[C@H](CCCNc4ccc5c(c4)C(=O)N(C4CCC(=O)NC4=O)C5=O)C3)c2)nc1` (stereo partly drawn) [GS-446, 2-(2,6-dioxopiperidin-3-yl)-5-((3-(trans-3-(4-(5-methylpyridin-2-yl)-1H-pyrazol-1-yl)cyclobutyl)propyl)amino)isoindoline-1,3-dione], the IC50 with MV4;11 cells (setting [1]) is 100 to 1000 nM; in the assay on MV4;11 cells (setting [2]), 10 to 100 nM; with MOLM-13 cells (setting [3]) it was above 1000 nM; with MOLM-13 cells (setting [4]), 10 to 100 nM.

On to `O=C1CCC(N2C(=O)c3ccc(NCCC[C@H]4C[C@H](n5cc(-c6cccc(C7CC7)n6)cn5)C4)cc3C2=O)C(=O)N1` (stereo partly drawn) [GS-447, 5-((3-(trans-3-(4-(6-cyclopropylpyridin-2-yl)-1H-pyrazol-1-yl)cyclobutyl)propyl)amino)-2-(2,6-dioxopiperidin-3-yl)isoindoline-1,3-dione], for which the IC50 in the assay with MV4;11 cells (setting [1]) is 10 to 100 nM; in the assay on MV4;11 cells (setting [2]) it was below 10 nM; with MOLM-13 cells (setting [3]), 100 to 1000 nM; in the assay on MOLM-13 cells (setting [4]), 10 to 100 nM.

For `O=C1CCC(N2C(=O)c3ccc(NC[C@H]4C[C@H](n5cc(N6CCCCC6)c(C6CC6)n5)C4)cc3C2=O)C(=O)N1` (stereo partly drawn) [GS-448, 5-(((trans-3-(3-cyclopropyl-4-(piperidin-1-yl)-1H-pyrazol-1-yl)cyclobutyl)methyl)amino)-2-(2,6-dioxopiperidin-3-yl)isoindoline-1,3-dione], the IC50 in the assay on MV4;11 cells (setting [1]) was 100 to 1000 nM; in the assay with MV4;11 cells (setting [2]), 10 to 100 nM; with MOLM-13 cells (setting [3]) it was above 1000 nM; in the assay on MOLM-13 cells (setting [4]), 100 to 1000 nM.

Regarding `Cc1cccc(-c2cn([C@H]3C[C@H](CNc4ccc5c(c4)C(=O)N(C4CCC(=O)NC4=O)C5=O)C3)nc2C)n1` (stereo partly drawn) [GS-449, 2-(2,6-dioxopiperidin-3-yl)-5-(((trans-3-(3-methyl-4-(6-methylpyridin-2-yl)-1H-pyrazol-1-yl)cyclobutyl)methyl)amino)isoindoline-1,3-dione], the IC50 with MV4;11 cells (setting [1]), in the assay with MV4;11 cells (setting [2]), in the assay on MOLM-13 cells (setting [3]) and with MOLM-13 cells (setting [4]) was above 1000 nM each time.

In the case of `O=C1CCC(N2C(=O)c3ccc(NCCCCn4cc(-c5cnc6ccccc6n5)c(C5CC5)n4)cc3C2=O)C(=O)N1` (centres unmarked) [GS-450, 5-((4-(3-cyclopropyl-4-(quinoxalin-2-yl)-1H-pyrazol-1-yl)butyl)amino)-2-(2,6-dioxopiperidin-3-yl)isoindoline-1,3-dione], the IC50 in the assay on MV4;11 cells (setting [1]) lay in the range of 10 to 100 nM; in the assay with MV4;11 cells (setting [2]), 10 to 100 nM; in the assay with MOLM-13 cells (setting [3]), 100 to 1000 nM; in the assay with MOLM-13 cells (setting [4]) it was 10 to 100 nM.
